Measured values reported in ChEMBL document CHEMBL1201862, “PubChem BioAssay data set” (2004).
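Five compound concentrations were applied to cells in 96-well plates for 48 hours; endpoints were derived by simple linear interpolation of the resulting dose-response curve. GI50 = concentration required for 50% inhibition of growth.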 Active and inactive are the calls of the source. No stated cut-off is given here; in the data, active = GI50 up to about 1.1 µM and inactive = higher.

Key:
Assay in all cases: NCI-60 cell line screen, 48 h
NCI-H23 = system: NCI-H23
DMS-273 = system: DMS-273
SK-MEL-5 = system: SK-MEL-5
TK-10 = system: TK-10
SW-620 = system: SW-620
MOLT-4 = system: MOLT-4
786-0 = system: 786-0
SF-295 = system: SF-295
HCT-15 = system: HCT-15
NCI-H522 = system: NCI-H522
OVCAR-3 = system: OVCAR-3
K562 = system: K562
HOP-62 = system: HOP-62
SNB-19 = system: SNB-19
NCI-H226 = system: NCI-H226
OVCAR-4 = system: OVCAR-4
A549 = system: A549
HT-29 = system: HT-29
SK-OV-3 = system: SK-OV-3
CCRF-CEM = system: CCRF-CEM
M14 = system: M14
NCI-H460 = system: NCI-H460
SR = system: SR
LOX IMVI = system: LOX IMVI
SK-MEL-28 = system: SK-MEL-28
ACHN = system: ACHN
U-251 = system: U-251
CAKI-1 = system: CAKI-1
OVCAR-5 = system: OVCAR-5
RXF 393 = system: RXF 393
HOP-92 = system: HOP-92
HOP-18 = system: HOP-18
SF-539 = system: SF-539
UACC-62 = system: UACC-62
COLO 205 = system: COLO 205
OVCAR-8 = system: OVCAR-8
DMS-114 = system: DMS-114
HL-60 = system: HL-60
DLD-1 = system: DLD-1
KM-20L2 = system: KM-20L2
SNB-78 = system: SNB-78
UACC-257 = system: UACC-257
HCT-116 = system: HCT-116
SF-268 = system: SF-268
M19-MEL = system: M19-MEL
XF498 = system: XF498
SK-MEL-2 = system: SK-MEL-2
RPMI-8226 = system: RPMI-8226
EKVX = system: EKVX
SN12C = system: SN12C
HCC 2998 = system: HCC 2998
LXFL 529 = system: LXFL 529
Malme-3M = system: Malme-3M
KM12 = system: KM12
IGROV-1 = system: IGROV-1
A498 = system: A498
SNB-75 = system: SNB-75
UO-31 = system: UO-31

In the case of `CC(=O)OC1COC(N2C(=O)/C(=N\NC(N)=S)c3cc(Br)ccc32)C(OC(C)=O)C1OC(C)=O` (stereo unspecified), the GI50 (NCI-H23) is reported as 67.9 µM (inactive), the GI50 (DMS-273) is reported as 38.5 µM (inactive) and the GI50 (SK-MEL-5) is reported as 85.9 µM (inactive). For the same compound, the GI50 (TK-10) was > 100 µM (inactive), the GI50 (SW-620) was 77.8 µM (inactive) and the GI50 (MOLT-4) was 39.3 µM (inactive). The GI50 (786-0) was > 100 µM (inactive), the GI50 (SF-295) was 45.3 µM (inactive) and the GI50 (HCT-15) was 61.9 µM. The GI50 (NCI-H522) was > 100 µM (inactive), the GI50 (OVCAR-3) was 51.5 µM (inactive) and the GI50 (K562) was 48 µM (inactive). The GI50 (HOP-62) was 98.6 µM (inactive), the GI50 (SNB-19) was > 100 µM (inactive) and the GI50 (NCI-H226) was > 100 µM (inactive). The GI50 (OVCAR-4) was 42.6 µM (inactive), the GI50 (A549) was 43.3 µM (inactive) and the GI50 (HT-29) was > 100 µM (inactive). The GI50 (SK-OV-3) was > 100 µM (inactive), the GI50 (CCRF-CEM) was 5.77 µM (inactive) and the GI50 (M14) was > 100 µM (inactive). For the same compound, the GI50 (NCI-H460) was 23.8 µM (inactive), the GI50 (SR) was 19.5 µM (inactive) and the GI50 (LOX IMVI) was 38.9 µM (inactive). The GI50 (SK-MEL-28) was 25.4 µM (inactive), the GI50 (ACHN) was 60.3 µM (inactive) and the GI50 (U-251) was 53.5 µM (inactive). For the same compound, the GI50 (CAKI-1) was > 100 µM (inactive), the GI50 (OVCAR-5) was > 100 µM (inactive) and the GI50 (RXF 393) was 63.5 µM (inactive). The GI50 (HOP-92) was > 100 µM (inactive), the GI50 (HOP-18) was > 100 µM (inactive) and the GI50 (SF-539) was 43.5 µM (inactive). For the same compound, the GI50 (UACC-62) was 35.6 µM (inactive), the GI50 (COLO 205) was 38.1 µM (inactive) and the GI50 (OVCAR-8) was 49.1 µM (inactive). The GI50 (DMS-114) was 19.9 µM (inactive), the GI50 (HL-60) was 25.6 µM (inactive) and the GI50 (DLD-1) was 42.2 µM (inactive). For the same compound, the GI50 (KM-20L2) was > 100 µM (inactive), the GI50 (SNB-78) was 53.5 µM (inactive) and the GI50 (UACC-257) was > 100 µM (inactive). The GI50 (HCT-116) was 27.2 µM (inactive), the GI50 (SF-268) was 38.5 µM (inactive) and the GI50 (M19-MEL) was 53.5 µM (inactive). The GI50 (XF498) was 37.1 µM (inactive), the GI50 (SK-MEL-2) was > 100 µM (inactive) and the GI50 (RPMI-8226) was 17.6 µM (inactive). The GI50 (EKVX) was 56.1 µM (inactive), the GI50 (SN12C) was > 100 µM (inactive) and the GI50 (HCC 2998) was > 100 µM (inactive). The GI50 (LXFL 529) was 25.5 µM (inactive), the GI50 (Malme-3M) was 32.7 µM (inactive) and the GI50 (KM12) was 39.4 µM (inactive). The GI50 (IGROV-1) was > 100 µM (inactive).

With `CC(C)(C)C1CCC(CI)(N=[N+]=[N-])CC1` (stereo unspecified) the GI50 (NCI-H23) was > 100 µM (inactive), the GI50 (DMS-273) was > 100 µM (inactive) and the GI50 (SK-MEL-5) was > 100 µM (inactive). For the same compound, the GI50 (TK-10) was > 100 µM (inactive), the GI50 (SW-620) was > 100 µM (inactive) and the GI50 (MOLT-4) was > 100 µM (inactive). For the same compound, the GI50 (786-0) was > 100 µM (inactive), the GI50 (SF-295) was > 100 µM (inactive) and the GI50 (HCT-15) was > 100 µM. For the same compound, the GI50 (NCI-H522) was > 100 µM (inactive), the GI50 (OVCAR-3) was > 100 µM (inactive) and the GI50 (A498) was > 100 µM (inactive). For the same compound, the GI50 (K562) was > 100 µM (inactive), the GI50 (HOP-62) was > 100 µM (inactive) and the GI50 (SNB-19) was > 100 µM (inactive). For the same compound, the GI50 (NCI-H226) was > 100 µM (inactive), the GI50 (OVCAR-4) was > 100 µM (inactive) and the GI50 (A549) was > 100 µM (inactive). For the same compound, the GI50 (HT-29) was > 100 µM (inactive), the GI50 (SK-OV-3) was > 100 µM (inactive) and the GI50 (CCRF-CEM) was > 100 µM (inactive). The GI50 (M14) was > 100 µM (inactive), the GI50 (NCI-H460) was > 100 µM (inactive) and the GI50 (SR) was 33.7 µM (inactive). The GI50 (ACHN) was > 100 µM (inactive), the GI50 (U-251) was > 100 µM (inactive) and the GI50 (CAKI-1) was > 100 µM (inactive). For the same compound, the GI50 (OVCAR-5) was > 100 µM (inactive), the GI50 (RXF 393) was > 100 µM (inactive) and the GI50 (HOP-92) was > 100 µM (inactive). The GI50 (HOP-18) was > 100 µM (inactive), the GI50 (SNB-75) was > 100 µM (inactive) and the GI50 (SF-539) was > 100 µM (inactive). For the same compound, the GI50 (UACC-62) was > 100 µM (inactive), the GI50 (COLO 205) was > 100 µM (inactive) and the GI50 (OVCAR-8) was > 100 µM (inactive). The GI50 (DMS-114) was > 100 µM (inactive), the GI50 (HL-60) was 42.8 µM (inactive) and the GI50 (DLD-1) was > 100 µM (inactive). The GI50 (KM-20L2) was > 100 µM (inactive), the GI50 (SNB-78) was > 100 µM (inactive) and the GI50 (UACC-257) was > 100 µM (inactive). The GI50 (HCT-116) was > 100 µM (inactive), the GI50 (SF-268) was > 100 µM (inactive) and the GI50 (UO-31) was > 100 µM (inactive). The GI50 (M19-MEL) was 99.1 µM (inactive), the GI50 (XF498) was 42.5 µM (inactive) and the GI50 (SK-MEL-2) was 61.1 µM (inactive). The GI50 (RPMI-8226) was 79.1 µM (inactive), the GI50 (EKVX) was > 100 µM (inactive) and the GI50 (SN12C) was > 100 µM (inactive). For the same compound, the GI50 (HCC 2998) was > 100 µM (inactive), the GI50 (LXFL 529) was > 100 µM (inactive) and the GI50 (Malme-3M) was > 100 µM (inactive). The GI50 (KM12) was > 100 µM (inactive) and the GI50 (IGROV-1) was > 100 µM (inactive).

`CCOc1ccc(/C=C(\Cl)c2ccc(OC)c(OC)c2)cc1` was tested, and the GI50 (NCI-H23) was 19.3 µM (inactive), the GI50 (DMS-273) was 22 µM (inactive) and the GI50 (SK-MEL-5) was 26.5 µM (inactive). The GI50 (SW-620) was 50.6 µM (inactive), the GI50 (MOLT-4) was 26.2 µM (inactive) and the GI50 (786-0) was > 100 µM (inactive). For the same compound, the GI50 (SF-295) was 80.9 µM (inactive), the GI50 (HCT-15) was 20.9 µM and the GI50 (NCI-H522) was 19.2 µM (inactive). For the same compound, the GI50 (A498) was 27.6 µM (inactive), the GI50 (K562) was 30.8 µM (inactive) and the GI50 (HOP-62) was 98.6 µM (inactive). The GI50 (SNB-19) was > 100 µM (inactive), the GI50 (NCI-H226) was 33.1 µM (inactive) and the GI50 (OVCAR-4) was 33.3 µM (inactive). For the same compound, the GI50 (A549) was 35.2 µM (inactive), the GI50 (HT-29) was 16.6 µM (inactive) and the GI50 (SK-OV-3) was 77.1 µM (inactive). For the same compound, the GI50 (CCRF-CEM) was 37.1 µM (inactive), the GI50 (M14) was 25.3 µM (inactive) and the GI50 (SR) was 12.2 µM (inactive). For the same compound, the GI50 (SK-MEL-28) was 38.5 µM (inactive), the GI50 (ACHN) was 36.4 µM (inactive) and the GI50 (U-251) was > 100 µM (inactive). For the same compound, the GI50 (RXF 393) was 12.4 µM (inactive), the GI50 (HOP-92) was 55.3 µM (inactive) and the GI50 (HOP-18) was 57.9 µM (inactive). For the same compound, the GI50 (SNB-75) was > 100 µM (inactive), the GI50 (SF-539) was > 100 µM (inactive) and the GI50 (UACC-62) was 20.5 µM (inactive). For the same compound, the GI50 (COLO 205) was 48.2 µM (inactive), the GI50 (OVCAR-8) was 63.8 µM (inactive) and the GI50 (DMS-114) was 26.6 µM (inactive). For the same compound, the GI50 (HL-60) was 21.8 µM (inactive), the GI50 (DLD-1) was 22.5 µM (inactive) and the GI50 (KM-20L2) was 16.7 µM (inactive). For the same compound, the GI50 (SNB-78) was 89.5 µM (inactive), the GI50 (UACC-257) was 21 µM (inactive) and the GI50 (HCT-116) was 32.6 µM (inactive). For the same compound, the GI50 (SF-268) was 87.3 µM (inactive), the GI50 (UO-31) was 28.7 µM (inactive) and the GI50 (M19-MEL) was 37.4 µM (inactive). For the same compound, the GI50 (XF498) was > 100 µM (inactive), the GI50 (RPMI-8226) was 20 µM (inactive) and the GI50 (EKVX) was 80.4 µM (inactive). The GI50 (SN12C) was 60.3 µM (inactive), the GI50 (HCC 2998) was 41.6 µM (inactive) and the GI50 (LXFL 529) was 35.9 µM (inactive). The GI50 (Malme-3M) was 58.9 µM (inactive) and the GI50 (IGROV-1) was 84.9 µM (inactive).
